Measured values from ChEMBL document CHEMBL2203132, “Synthesis and antibiofilm activity of marine natural product-based 4-thiazolidinones derivatives” (2012).
In brackets after ≈: the same amount, converted by molar mass.

Columns and labels:
Type in all cases: functional
Staphylococcus aureus [1] = experiment: Bactericidal activity against Staphylococcus aureus ATCC 29213 using sub-cultures from MIC method grown subsequently on Mueller-Hinton agar plates at 37 degC for 24 hrs; conditions: ATCC 29213, 24 h
Staphylococcus aureus [2] = experiment: Antibiofilm activity against Staphylococcus aureus ATCC 29213 biofilms incubated at 37 degC for 16 hrs; conditions: ATCC 29213, 16 h
[3] = tested on: Staphylococcus epidermidis; experiment: Antimicrobial activity against Staphylococcus epidermidis ATCC 12228 by broth microdilution method
Enterococcus faecalis [4] = experiment: Antibiofilm activity against Enterococcus faecalis ATCC 29212 biofilms incubated at 37 degC for 16 hrs; conditions: ATCC 29212, 16 h
[5] = tested on: Staphylococcus epidermidis; experiment: Antimicrobial activity against Staphylococcus epidermidis ATCC 12228 using sub-cultures from MIC method grown subsequently on Mueller-Hinton agar plates at 37 degC for 24 hrs; conditions: ATCC 12228, 24 h
Enterococcus faecalis [6] = experiment: Antimicrobial activity against Enterococcus faecalis ATCC 29212 by broth microdilution method
[7] = tested on: Staphylococcus epidermidis; experiment: Antibiofilm activity against Staphylococcus epidermidis ATCC 12228 biofilms incubated at 37 degC for 16 hrs; conditions: ATCC 12228, 16 h
Staphylococcus aureus [8] = experiment: Antimicrobial activity against Staphylococcus aureus ATCC 29213 by broth microdilution method
Enterococcus faecalis [9] = experiment: Antimicrobial activity against Enterococcus faecalis ATCC 29212 using sub-cultures from MIC method grown subsequently on Mueller-Hinton agar plates at 37 degC for 24 hrs; conditions: ATCC 29212, 24 h
Staphylococcus aureus [10] = experiment: Potency index, ratio of MIC for vancomycin to MIC for compound against Staphylococcus aureus ATCC 29213 biofilms incubated at 37 degC for 16 hrs

MIC (Staphylococcus aureus [2])	MIC [3]	MIC (Enterococcus faecalis [4])	MIC (Enterococcus faecalis [6])	MIC [7]	MIC (Staphylococcus aureus [8])	Structure (SMILES)	MBC (Staphylococcus aureus [1])	MBC [5]	MBC (Enterococcus faecalis [9])	Ratio (Staphylococcus aureus [10])
3.12 µg/mL (≈ 6.81 µM)	3.12 µg/mL (≈ 6.81 µM)	12.5 µg/mL (≈ 27.2 µM)	12.5 µg/mL (≈ 27.2 µM)	12.5 µg/mL (≈ 27.2 µM)	1.56 µg/mL (≈ 3.4 µM)	Cn1c(C(=O)NN2C(=O)CSC2c2ccccc2)cc(Br)c1Br (stereo not given)	6.25 µg/mL (≈ 13.6 µM)	6.25 µg/mL (≈ 13.6 µM)	25 µg/mL (≈ 54.4 µM)	–
0.78 µg/mL (≈ 1.59 µM)	1.56 µg/mL (≈ 3.19 µM)	6.25 µg/mL (≈ 12.8 µM)	6.25 µg/mL (≈ 12.8 µM)	3.12 µg/mL (≈ 6.39 µM)	0.78 µg/mL (≈ 1.59 µM)	COc1ccc(C2SCC(=O)N2NC(=O)c2cc(Br)c(Br)n2C)cc1 (stereo not given)	6.25 µg/mL (≈ 12.8 µM)	3.12 µg/mL (≈ 6.39 µM)	25 µg/mL (≈ 51.1 µM)	3
0.78 µg/mL (≈ 1.55 µM)	1.56 µg/mL (≈ 3.09 µM)	12.5 µg/mL (≈ 24.8 µM)	12.5 µg/mL (≈ 24.8 µM)	3.12 µg/mL (≈ 6.2 µM)	0.78 µg/mL (≈ 1.55 µM)	Cn1c(C(=O)NN2C(=O)CSC2c2ccc([N+](=O)[O-])cc2)cc(Br)c1Br (stereo not given)	6.25 µg/mL (≈ 12.4 µM)	6.25 µg/mL (≈ 12.4 µM)	25 µg/mL (≈ 49.6 µM)	3
1.56 µg/mL (≈ 3.09 µM)	1.56 µg/mL (≈ 3.09 µM)	12.5 µg/mL (≈ 24.7 µM)	12.5 µg/mL (≈ 24.7 µM)	3.12 µg/mL (≈ 6.19 µM)	0.78 µg/mL (≈ 1.54 µM)	COc1ccc(C2SCC(=O)N2NC(=O)c2cc(Br)c(Br)n2C)c(O)c1 (stereo not given)	6.25 µg/mL (≈ 12.4 µM)	3.12 µg/mL (≈ 6.19 µM)	25 µg/mL (≈ 49.5 µM)	2
3.12 µg/mL (≈ 6.19 µM)	1.56 µg/mL (≈ 3.09 µM)	12.5 µg/mL (≈ 24.7 µM)	3.12 µg/mL (≈ 6.19 µM)	3.12 µg/mL (≈ 6.19 µM)	1.56 µg/mL (≈ 3.09 µM)	COc1ccc(C2SCC(=O)N2NC(=O)c2cc(Br)c(Br)n2C)cc1O (stereo not given)	6.25 µg/mL (≈ 12.4 µM)	6.25 µg/mL (≈ 12.4 µM)	12.5 µg/mL (≈ 24.7 µM)	–
1.56 µg/mL (≈ 3.18 µM)	1.56 µg/mL (≈ 3.18 µM)	12.5 µg/mL (≈ 25.4 µM)	6.25 µg/mL (≈ 12.7 µM)	3.12 µg/mL (≈ 6.36 µM)	0.78 µg/mL (≈ 1.59 µM)	Cn1c(C(=O)NN2C(=O)CSC2c2cc(O)ccc2O)cc(Br)c1Br (stereo not given)	3.12 µg/mL (≈ 6.36 µM)	3.12 µg/mL (≈ 6.36 µM)	12.5 µg/mL (≈ 25.4 µM)	2
1.56 µg/mL (≈ 3.27 µM)	1.56 µg/mL (≈ 3.27 µM)	12.5 µg/mL (≈ 26.2 µM)	3.12 µg/mL (≈ 6.54 µM)	3.12 µg/mL (≈ 6.55 µM)	0.78 µg/mL (≈ 1.63 µM)	Cn1c(C(=O)NN2C(=O)CSC2c2ccc(F)cc2)cc(Br)c1Br (stereo not given)	3.12 µg/mL (≈ 6.55 µM)	3.12 µg/mL (≈ 6.55 µM)	12.5 µg/mL (≈ 26.2 µM)	2
1.56 µg/mL (≈ 3.16 µM)	1.56 µg/mL (≈ 3.16 µM)	12.5 µg/mL (≈ 25.3 µM)	12.5 µg/mL (≈ 25.3 µM)	3.12 µg/mL (≈ 6.33 µM)	0.78 µg/mL (≈ 1.58 µM)	Cn1c(C(=O)NN2C(=O)CSC2c2ccc(Cl)cc2)cc(Br)c1Br (stereo not given)	3.12 µg/mL (≈ 6.33 µM)	3.12 µg/mL (≈ 6.33 µM)	25 µg/mL (≈ 50.6 µM)	2
6.12 µg/mL (≈ 12.3 µM)	25 µg/mL (≈ 50.1 µM)	6.25 µg/mL (≈ 12.5 µM)	25 µg/mL (≈ 50.1 µM)	6.25 µg/mL (≈ 12.5 µM)	6.25 µg/mL (≈ 12.5 µM)	Cn1c(C(=O)NN2C(=O)CSC2C/C=C/c2ccccc2)cc(Br)c1Br (stereo not given)	12.5 µg/mL (≈ 25 µM)	12.5 µg/mL (≈ 25 µM)	12.5 µg/mL (≈ 25 µM)	–
12.5 µg/mL (≈ 26.4 µM)	6.25 µg/mL (≈ 13.2 µM)	25 µg/mL (≈ 52.8 µM)	50 µg/mL (≈ 106 µM)	12.5 µg/mL (≈ 26.4 µM)	12.5 µg/mL (≈ 26.4 µM)	Cn1c(C(=O)NN2C(=O)CCSC2c2ccccc2)cc(Br)c1Br (stereo not given)	6.25 µg/mL (≈ 13.2 µM)	12.5 µg/mL (≈ 26.4 µM)	100 µg/mL (≈ 211 µM)	–
6.25 µg/mL (≈ 12.4 µM)	6.25 µg/mL (≈ 12.4 µM)	25 µg/mL (≈ 49.7 µM)	50 µg/mL (≈ 99.4 µM)	12.5 µg/mL (≈ 24.8 µM)	3.12 µg/mL (≈ 6.21 µM)	COc1ccc(C2SCCC(=O)N2NC(=O)c2cc(Br)c(Br)n2C)cc1 (stereo not given)	6.25 µg/mL (≈ 12.4 µM)	12.5 µg/mL (≈ 24.8 µM)	100 µg/mL (≈ 199 µM)	–
6.25 µg/mL (≈ 12.1 µM)	6.25 µg/mL (≈ 12.1 µM)	25 µg/mL (≈ 48.2 µM)	50 µg/mL (≈ 96.5 µM)	12.5 µg/mL (≈ 24.1 µM)	3.12 µg/mL (≈ 6.03 µM)	Cn1c(C(=O)NN2C(=O)CCSC2c2ccc([N+](=O)[O-])cc2)cc(Br)c1Br (stereo not given)	6.25 µg/mL (≈ 12.1 µM)	12.5 µg/mL (≈ 24.1 µM)	50 µg/mL (≈ 96.5 µM)	–
6.25 µg/mL (≈ 12 µM)	6.25 µg/mL (≈ 12 µM)	25 µg/mL (≈ 48.1 µM)	25 µg/mL (≈ 48.1 µM)	12.5 µg/mL (≈ 24.1 µM)	3.12 µg/mL (≈ 6.02 µM)	COc1ccc(C2SCCC(=O)N2NC(=O)c2cc(Br)c(Br)n2C)c(O)c1 (stereo not given)	6.25 µg/mL (≈ 12 µM)	12.5 µg/mL (≈ 24.1 µM)	50 µg/mL (≈ 96.3 µM)	–
6.25 µg/mL (≈ 12 µM)	6.25 µg/mL (≈ 12 µM)	25 µg/mL (≈ 48.1 µM)	25 µg/mL (≈ 48.1 µM)	12.5 µg/mL (≈ 24.1 µM)	3.12 µg/mL (≈ 6.02 µM)	COc1ccc(C2SCCC(=O)N2NC(=O)c2cc(Br)c(Br)n2C)cc1O (stereo not given)	6.25 µg/mL (≈ 12 µM)	12.5 µg/mL (≈ 24.1 µM)	50 µg/mL (≈ 96.3 µM)	–
6.25 µg/mL (≈ 12.4 µM)	6.25 µg/mL (≈ 12.4 µM)	25 µg/mL (≈ 49.5 µM)	25 µg/mL (≈ 49.5 µM)	12.5 µg/mL (≈ 24.7 µM)	3.12 µg/mL (≈ 6.19 µM)	Cn1c(C(=O)NN2C(=O)CCSC2c2cc(O)ccc2O)cc(Br)c1Br (stereo not given)	12.5 µg/mL (≈ 24.7 µM)	12.5 µg/mL (≈ 24.7 µM)	50 µg/mL (≈ 99 µM)	–
6.25 µg/mL (≈ 12.7 µM)	6.25 µg/mL (≈ 12.7 µM)	25 µg/mL (≈ 50.9 µM)	25 µg/mL (≈ 50.9 µM)	12.5 µg/mL (≈ 25.4 µM)	3.12 µg/mL (≈ 6.36 µM)	Cn1c(C(=O)NN2C(=O)CCSC2c2ccc(F)cc2)cc(Br)c1Br (stereo not given)	12.5 µg/mL (≈ 25.4 µM)	12.5 µg/mL (≈ 25.4 µM)	50 µg/mL (≈ 102 µM)	–
6.25 µg/mL (≈ 12.3 µM)	6.25 µg/mL (≈ 12.3 µM)	25 µg/mL (≈ 49.2 µM)	25 µg/mL (≈ 49.2 µM)	12.5 µg/mL (≈ 24.6 µM)	3.12 µg/mL (≈ 6.16 µM)	Cn1c(C(=O)NN2C(=O)CCSC2c2ccc(Cl)cc2)cc(Br)c1Br (stereo not given)	12.5 µg/mL (≈ 24.6 µM)	12.5 µg/mL (≈ 24.6 µM)	50 µg/mL (≈ 98.5 µM)	–
25 µg/mL (≈ 48.7 µM)	6.25 µg/mL (≈ 12.2 µM)	50 µg/mL (≈ 97.4 µM)	25 µg/mL (≈ 48.7 µM)	25 µg/mL (≈ 48.7 µM)	12.5 µg/mL (≈ 24.4 µM)	Cn1c(C(=O)NN2C(=O)CCSC2C/C=C/c2ccccc2)cc(Br)c1Br (stereo not given)	50 µg/mL (≈ 97.4 µM)	12.5 µg/mL (≈ 24.4 µM)	50 µg/mL (≈ 97.4 µM)	–

Structure (SMILES)	MIC (Staphylococcus aureus [2])	MIC [3]	MIC (Enterococcus faecalis [4])	MIC (Enterococcus faecalis [6])	MIC [7]	MIC (Staphylococcus aureus [8])	MBC (Staphylococcus aureus [1])	MBC [5]	MBC (Enterococcus faecalis [9])	Ratio (Staphylococcus aureus [10])
CN[C@H](CC(C)C)C(=O)N[C@H]1C(=O)N[C@@H](CC(N)=O)C(=O)N[C@H]2C(=O)N[C@H]3C(=O)N[C@H](C(=O)N[C@H](C(=O)O)c4cc(O)cc(O)c4-c4cc3ccc4O)[C@H](O)c3ccc(c(Cl)c3)Oc3cc2cc(c3O[C@@H]2O[C@H](CO)[C@@H](O)[C@H](O)[C@H]2O[C@H]2C[C@](C)(N)[C@H](O)[C@H](C)O2)Oc2ccc(cc2Cl)[C@H]1O [VANCOMYCIN]	3.12 µg/mL (≈ 2.16 µM)	–	3.12 µg/mL (≈ 2.16 µM)	3.12 µg/mL (≈ 2.16 µM)	3.12 µg/mL (≈ 2.16 µM)	–	3.12 µg/mL (≈ 2.16 µM)	3.12 µg/mL (≈ 2.16 µM)	6.25 µg/mL (≈ 4.31 µM)	–
